The nature of test [1]: Inhibitory potency against Herpes Simplex virus ribonucleotide reductase. More on the design: species or system Herpes simplex virus (type 1 / strain 17).
Test [2] in a line: Inhibitory potency against Varicella zoster virus ribonucleotide reductase.

Starred links: 1 amine or outer side, 2 acyl side, 3 side chain; linkers in the order of their positions; H or OH if unused. Non-standard residues stand in square brackets, D forms with d. Residues, ends and D or L forms follow the SMILES beside them. *: point of attachment. Asp(3,3-(CH2)4) = N[C@H](C(=O)O)C1(C(=O)O)CCCC1; Dibenzylacetyl = O=C(C(Cc1ccccc1)Cc1ccccc1)*; Hydrocinnamoyl = O=C(CCc1ccccc1)*; tBuAla = CC(C)(C)C[C@H](N)C(=O)O; Tle = CC(C)(C)[C@H](N)C(=O)O; NMeV = CN[C@H](C(=O)O)C(C)C; NH(3-pentyl) = CCC(CC)N*; Pyrrolidide = C1CCN(*)C1; CO = O=C([*:1])[*:2]; X1 = CCC(CC)OC(=O)*; X2 = CCC(CC)CC(=O)*

Turning to `CC(C)C[C@H](NC(=O)[C@H](CC(=O)O)NC(=O)[C@H](CC(N)=O)NC(=O)[C@@H](NC(=O)[C@@H](NC(=O)CCc1ccccc1)C(C)C)C(C)C)C(=O)O`, the IC50 worked out at 4000 nM in test [1] and 15000 nM in test [2].

In test [1], `CC(C)C[C@H](NC(=O)[C@H](CC(=O)O)NC(=O)[C@H](CC(N)=O)NC(=O)[C@@H](NC(=O)[C@@H](NC(=O)[C@H](C)NC(=O)CNC(=O)[C@H](C)NC(=O)[C@@H](N)Cc1ccc(O)cc1)C(C)C)C(C)C)C(=O)O` showed a concentration for half-maximal inhibition (IC50) of 25000 nM. This lies in the double-digit micromolar range.

On to `CCC(CC)NC(=O)C[C@H](C(=O)N[C@@H](CC(=O)N1CCCC1)C(=O)N[C@@H](CC(=O)O)C(=O)N[C@@H](CC(C)C)C(=O)O)C(C)(C)C`, for which the values for the 50% inhibitory concentration (IC50) in test [1] and in test [2] were 5 nM and 3500 nM, respectively.

As for `CC(C)C[C@H](NC(=O)[C@H](CC(=O)O)NC(=O)[C@H](CC(=O)N1CCCC1)NC(=O)[C@@H](NC(=O)[C@@H](NC(=O)C(Cc1ccccc1)Cc1ccccc1)C(C)C)C(C)C)C(=O)O` (Dibenzylacetyl-VVD(Pyrrolidide)DL-OH), the half-inhibitory concentration (IC50) in test [1] stood at 0.7 nM; in test [2], 22 nM.

For `CC(C)C[C@H](NC(=O)[C@H](CC(=O)O)NC(=O)[C@H](CC(=O)N1CCCC1)NC(=O)[C@@H](NC(=O)[C@@H](NC(=O)CCc1ccccc1)C(C)C)C(C)C)C(=O)O` (Hydrocinnamoyl-VVD(Pyrrolidide)DL-OH), the 50% inhibitory concentration (IC50) in test [1] amounted to 24 nM; in test [2], 588 nM.

In the case of `CC(C)[C@H](NC(=O)CCc1ccccc1)C(=O)N[C@H](C(=O)N[C@@H](CC(=O)N1CCCC1)C(=O)N[C@@H](CC(=O)O)C(=O)N[C@@H](CC(C)(C)C)C(=O)O)C(C)C` (Hydrocinnamoyl-VVD(Pyrrolidide)D[tBuAla]-OH), the IC50 stood at 5 nM in test [1] and 9800 nM in test [2].

Take `CC(C)C[C@H](NC(=O)[C@@H](NC(=O)[C@H](CC(=O)N1CCCC1)NC(=O)[C@@H](NC(=O)[C@@H](NC(=O)CCc1ccccc1)C(C)C)C(C)C)C1(C(=O)O)CCCC1)C(=O)O` (Hydrocinnamoyl-VVD(Pyrrolidide)[Asp(3,3-(CH2)4)]L-OH): the values for the 50% inhibitory concentration (IC50) in test [1] and in test [2] were 1 nM and 37 nM, respectively.

For the molecule `CC(C)C[C@H](NC(=O)[C@H](CC(=O)O)NC(=O)[C@H](CC(=O)N1CCCC1)NC(=O)[C@@H](NC(=O)[C@@H](NC(=O)CCc1ccccc1)C(C)C)C(C)(C)C)C(=O)O` (Hydrocinnamoyl-V[Tle]D(Pyrrolidide)DL-OH), the figures for the half-maximal inhibitory concentration (IC50) in test [1] and in test [2] were 4 nM and 123 nM, respectively.

Turning to `CC(C)C[C@H](NC(=O)[C@H](CC(=O)O)NC(=O)[C@H](CC(=O)N1CCCC1)NC(=O)[C@@H](NC(=O)[C@H](C(C)C)N(C)C(=O)CCc1ccccc1)C(C)C)C(=O)O` (Hydrocinnamoyl-[NMeV]VD(Pyrrolidide)DL-OH), the figures for the 50% inhibitory concentration (IC50) in test [1] and in test [2] were 7.5 nM and 210 nM, respectively.

Turning to `CCC(CC)OC(=O)N[C@H](C(=O)N[C@@H](CC(=O)N1CCCC1)C(=O)N[C@@H](CC(=O)O)C(=O)N[C@@H](CC(C)C)C(=O)O)C(C)(C)C` (X1-[Tle]D(Pyrrolidide)DL-OH), the half-inhibitory concentration (IC50) in test [1] came to 635 nM; in test [2] it was 7000 nM.

As for `CCC(CC)CC(=O)N[C@H](C(=O)N[C@@H](CC(=O)N1CCCC1)C(=O)N[C@@H](CC(=O)O)C(=O)N[C@@H](CC(C)C)C(=O)O)C(C)(C)C` (X2-[Tle]D(Pyrrolidide)DL-OH), the IC50 in test [1] is 140 nM. This lies in the sub-micromolar range.

As for `CCC(CC)NC(=O)N[C@H](C(=O)N[C@@H](CC(=O)N1CCCC1)C(=O)N[C@@H](CC(=O)O)C(=O)N[C@@H](CC(C)C)C(=O)O)C(C)(C)C` ({NH(3-pentyl)-CO}-[Tle]D(Pyrrolidide)DL-OH), the 50% inhibitory concentration (IC50) in test [1] stood at 3 nM; in test [2], 925 nM.

For H-YAGTVINDL-OH, in test [1], it took 8000 nM to reach half-maximal inhibition (IC50).

(Values after ChEMBL document CHEMBL1128941, “Peptidomimetic inhibitors of herpes virus ribonucleotide reductase. Correlation between herpes simplex and varicella zoster virus” (Bioorg Med Chem Lett, 1996).)
